Data taken from patent US20140377870A1 (priority 2010, published 2014).

Legend:
[1] = tested on: cells not expressing the HSV-TK gene; settings: cited from earlier work
ES cells = settings: cited from earlier work
VACVΔE3L::GyrB-PKR = assay type: cell-based, vaccinia virus
VACVΔE3L = assay type: cell-based, vaccinia virus
VACVΔE3L::GyrB-PKRK296H = assay type: cell-based, vaccinia virus
VACVΔJ2R::GyrB-PKR = assay type: cell-based, vaccinia virus

Compound: Nc1nc(O)c2ncn(COC(CO)CO)c2n1 [GCV, ganciclovir]
- nonspecific toxicity [1]: nonspecific toxicity
- totipotency of ES cells (ES cells): reduce the totipotency

Compound: Coumermycin A1
- coumermycin concentration at which sensitivity of the virus was observed (VACVΔE3L::GyrB-PKR): greater than 5 ng/ml
- sensitivity of virus to coumermycin (VACVΔE3L): resistant to all doses
- sensitivity of virus to coumermycin (VACVΔE3L::GyrB-PKRK296H): resistant to all doses
- sensitivity to coumermycin compared to untreated cells (VACVΔJ2R::GyrB-PKR): at least 100,000 fold
